According to PubChem BioAssay AID1259407 (Chemical Carcinogenesis Research Information System (CCRIS), 2018):
Active and inactive are the calls of the source. The rule behind the calls is not given here.

System: CCRIS mutagenicity, Ames/micronucleus/aberration tests
Assay: CCRIS mutagenicity studies
[1] = Test System: AMES SALMONELLA TYPHIMURIUM, Strain/Indicator: TA100, Metabolic Activation: NONE, Method: STANDARD PLATE

Compound	mutagenic call (Test System: AMES SALMONELLA TYPHIMURIUM, Strain/Indicator: TA98, Metabolic Activation: HAMSTER, LIVER, S-9, AROCLOR 1254, Method: STANDARD PLATE)	mutagenic call (Test System: AMES SALMONELLA TYPHIMURIUM, Strain/Indicator: TA98, Metabolic Activation: NONE, Method: STANDARD PLATE)	mutagenic call (Test System: AMES SALMONELLA TYPHIMURIUM, Strain/Indicator: TA98, Metabolic Activation: RAT, LIVER, S-9, AROCLOR 1254, Method: STANDARD PLATE)	mutagenic call (Test System: AMES SALMONELLA TYPHIMURIUM, Strain/Indicator: TA100, Metabolic Activation: HAMSTER, LIVER, S-9, AROCLOR 1254, Method: STANDARD PLATE)	mutagenic call [1]	mutagenic call (Test System: AMES SALMONELLA TYPHIMURIUM, Strain/Indicator: TA100, Metabolic Activation: RAT, LIVER, S-9, AROCLOR 1254, Method: STANDARD PLATE)	mutagenic call (Test System: AMES SALMONELLA TYPHIMURIUM, Strain/Indicator: TA1535, Metabolic Activation: HAMSTER, LIVER, S-9, AROCLOR 1254, Method: STANDARD PLATE)	mutagenic call (Test System: AMES SALMONELLA TYPHIMURIUM, Strain/Indicator: TA1535, Metabolic Activation: NONE, Method: STANDARD PLATE)	mutagenic call (Test System: AMES SALMONELLA TYPHIMURIUM, Strain/Indicator: TA1535, Metabolic Activation: RAT, LIVER, S-9, AROCLOR 1254, Method: STANDARD PLATE)	mutagenic call (Test System: AMES SALMONELLA TYPHIMURIUM, Strain/Indicator: TA1537, Metabolic Activation: HAMSTER, LIVER, S-9, AROCLOR 1254, Method: STANDARD PLATE)	mutagenic call (Test System: AMES SALMONELLA TYPHIMURIUM, Strain/Indicator: TA1537, Metabolic Activation: NONE, Method: STANDARD PLATE)	mutagenic call (Test System: AMES SALMONELLA TYPHIMURIUM, Strain/Indicator: TA1537, Metabolic Activation: RAT, LIVER, S-9, AROCLOR 1254, Method: STANDARD PLATE)	mutagenic call (Test System: AMES SALMONELLA TYPHIMURIUM, Strain/Indicator: TA1538, Metabolic Activation: HAMSTER, LIVER, S-9, AROCLOR 1254, Method: STANDARD PLATE)	mutagenic call (Test System: AMES SALMONELLA TYPHIMURIUM, Strain/Indicator: TA1538, Metabolic Activation: NONE, Method: STANDARD PLATE)	mutagenic call (Test System: AMES SALMONELLA TYPHIMURIUM, Strain/Indicator: TA1538, Metabolic Activation: RAT, LIVER, S-9, AROCLOR 1254, Method: STANDARD PLATE)	mutagenic call (Test System: MOUSE LYMPHOMA, Strain/Indicator: L5178Y (TK+/TK-), Metabolic Activation: NONE, Method: SUSPENSION/PLATE)	mutagenic call (Test System: MOUSE LYMPHOMA, Strain/Indicator: L5178Y (TK+/TK-), Metabolic Activation: RAT, LIVER, S-9, AROCLOR 1254, Method: SUSPENSION/PLATE)	mutagenic call (Test System: CHINESE HAMSTER V-79, Strain/Indicator: V-79 (HGPRT)/6-THIOGUANINE, Metabolic Activation: NONE)	mutagenic call (Test System: CHINESE HAMSTER V-79, Strain/Indicator: V-79 (HGPRT)/6-THIOGUANINE, Metabolic Activation: RAT, LIVER, S-9, AROCLOR 1254)
CC[C@H](C)[C@@H]([C@@H](CC(=O)N1CCC[C@H]1[C@H](OC)[C@@H](C)C(=O)N[C@@H](Cc1ccccc1)c1nccs1)OC)N(C)C(=O)[C@@H](NC(=O)[C@H](C(C)C)N(C)C)C(C)C	inactive; negative	inactive; negative	inactive; negative	inactive; negative	inactive; negative	inactive; negative	inactive; negative	inactive; negative	inactive; negative	inactive; negative	inactive; negative	inactive; negative	inactive; negative	inactive; negative	inactive; negative	active; positive. reevaluation of results: inconclusive	inactive; negative. reevaluation of results: negative	–	–
C=CCN(CC=C)C1c2ccccc2-c2ccccc2C1N1C2c3ccccc3-c3ccccc3C21 (stereo not given)	–	–	–	–	inactive; negative	–	–	–	–	–	–	–	–	–	–	–	–	–	–
Brc1ccc(-c2ccc(Br)c(Br)c2)cc1Br	–	–	–	–	–	–	–	–	–	–	–	–	–	–	–	–	–	inactive; negative	inactive; negative
